# Laboratory results taken from patent publication US6914045B2, “Glycopeptide antibiotics” (Wyeth Holdings Corporation, priority 2001, dated 2005).
# Legend:
# Test in all cases: in vitro antibacterial evaluation, MIC by broth dilution
# Assay type in all cases: cell-based
# Enterococcus sp. = conditions: broth dilution, 18 hours at 35° C.
# Outline: (§1)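 Broth dilution per NCCLS M7-A2 in Mueller-Hinton II medium, inoculum 5×10^5 CFU/mL, antibiotic range 64-0.06 μg/mL. MIC taken as lowest concentration inhibiting growth; Gram-positive panel includes recent clinical isolates resistant to methicillin, penicillin and/or vancomycin.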
# Escherichia coli = conditions: 18 hours at 35° C.
# Outline: as §1
# Staphylococcus sp. = conditions: broth dilution, 18 hours at 35° C.
# Outline: as §1
# Streptococcus sp. = conditions: broth dilution, 18 hours at 35° C.
# Outline: as §1
compound,measurement,setting,value
CC(c1ccccc1)C1NC(=O)CNC(=O)C(CO)NC(=O)C(C(O)C2CNC(=N)N2C2OC(CO)C(O)C(O)C2O)NC(=O)C(C(O)C2CNC(=N)N2)NC(=O)C(Cc2ccc(OC3OC(CO)C(OC4OC5COC(C67CC8CC(CC(C8)C6)C7)OC5C(O)C4O)C(O)C3O)cc2)NC1=O (stereo not drawn) [Example 127],MIC Enterococcus avium (GC 4558),Enterococcus sp.; Enterococcus avium (GC 4558),2 µg/mL
same,MIC Enterococcus faecalis (ATCC 29212),Enterococcus sp.; Enterococcus faecalis (ATCC 29212),2 µg/mL
same,MIC Enterococcus faecalis (GC 2242),Enterococcus sp.; Enterococcus faecalis (GC 2242),4 µg/mL
same,MIC Enterococcus faecalis (GC 2691),Enterococcus sp.; Enterococcus faecalis (GC 2691),4 µg/mL
same,MIC Enterococcus faecalis (GC 3059),Enterococcus sp.; Enterococcus faecalis (GC 3059),2 µg/mL
same,MIC Enterococcus faecalis (GC 4552),Enterococcus sp.; Enterococcus faecalis (GC 4552),4 µg/mL
same,MIC Enterococcus faecalis (GC 4553),Enterococcus sp.; Enterococcus faecalis (GC 4553),4 µg/mL
same,MIC Enterococcus faecalis (GC 4554),Enterococcus sp.; Enterococcus faecalis (GC 4554),4 µg/mL
same,MIC Enterococcus faecalis (GC 6189),Enterococcus sp.; Enterococcus faecalis (GC 6189),2 µg/mL
same,MIC Enterococcus faecium (GC 2243),Enterococcus sp.; Enterococcus faecium (GC 2243),4 µg/mL
same,MIC Enterococcus faecium (GC 4556),Enterococcus sp.; Enterococcus faecium (GC 4556),4 µg/mL
same,MIC Enterococcus faecium (GC 4557),Enterococcus sp.; Enterococcus faecium (GC 4557),4 µg/mL
same,MIC Enterococcus faecalis (ATCC 29212),Enterococcus sp.; strain ATCC 29212,2 µg/mL
same,MIC Enterococcus faecalis (GC 2242),Enterococcus sp.; strain GC 2242,4 µg/mL
same,MIC Enterococcus faecium (GC 2243),Enterococcus sp.; strain GC 2243,4 µg/mL
same,MIC Enterococcus faecalis (GC 2691),Enterococcus sp.; strain GC 2691,4 µg/mL
same,MIC Enterococcus faecalis (GC 3059),Enterococcus sp.; strain GC 3059,2 µg/mL
same,MIC Enterococcus faecalis (GC 4552),Enterococcus sp.; strain GC 4552,4 µg/mL
same,MIC Enterococcus faecalis (GC 4553),Enterococcus sp.; strain GC 4553,4 µg/mL
same,MIC Enterococcus faecalis (GC 4554),Enterococcus sp.; strain GC 4554,4 µg/mL
same,MIC Enterococcus faecium (GC 4556),Enterococcus sp.; strain GC 4556,4 µg/mL
same,MIC Enterococcus faecium (GC 4557),Enterococcus sp.; strain GC 4557,4 µg/mL
same,MIC Enterococcus avium (GC 4558),Enterococcus sp.; strain GC 4558,2 µg/mL
same,MIC Enterococcus faecalis (GC 6189),Enterococcus sp.; strain GC 6189,2 µg/mL
same,MIC Escherichia coli (ATCC 25922),Escherichia coli; strain ATCC 25922,64 µg/mL
same,MIC Escherichia coli (GC 4559),Escherichia coli; strain GC 4559,64 µg/mL
same,MIC Escherichia coli (GC 4560),Escherichia coli; strain GC 4560,4 µg/mL
same,MIC Staphylococcus aureus (ATCC 29213),Staphylococcus sp.,2 µg/mL
same,MIC Staphylococcus aureus (GC 1131),Staphylococcus sp.,4 µg/mL
same,MIC Staphylococcus aureus (GC 3051),Staphylococcus sp.,2 µg/mL
same,MIC Staphylococcus aureus (GC 3053),Staphylococcus sp.,2 µg/mL
same,MIC Staphylococcus aureus (GC 4541),Staphylococcus sp.,4 µg/mL
same,MIC Staphylococcus aureus (GC 4542),Staphylococcus sp.,2 µg/mL
same,MIC Staphylococcus aureus (GC 4544),Staphylococcus sp.,4 µg/mL
same,MIC Staphylococcus aureus (GC 4545),Staphylococcus sp.,2 µg/mL
same,MIC Staphylococcus aureus (GC 1131),"Staphylococcus sp.; inoculum 5×10^5 CFU/mL, strain GC 1131",4 µg/mL
same,MIC Staphylococcus aureus (ATCC 29213),Staphylococcus sp.; strain ATCC 29213,2 µg/mL
same,MIC Staphylococcus aureus (GC 3051),Staphylococcus sp.; strain GC 3051,2 µg/mL
same,MIC Staphylococcus aureus (GC 3053),Staphylococcus sp.; strain GC 3053,2 µg/mL
same,MIC Staphylococcus aureus (GC 4541),Staphylococcus sp.; strain GC 4541,4 µg/mL
same,MIC Staphylococcus aureus (GC 4542),Staphylococcus sp.; strain GC 4542,2 µg/mL
same,MIC Staphylococcus aureus-SMITH (GC 4543),Staphylococcus sp.; strain GC 4543,2 µg/mL
same,MIC Staphylococcus aureus (GC 4544),Staphylococcus sp.; strain GC 4544,4 µg/mL
same,MIC Staphylococcus aureus (GC 4545),Staphylococcus sp.; strain GC 4545,2 µg/mL
same,MIC Staphylococcus haemolyticus (GC 4546),Staphylococcus sp.; strain GC 4546,2 µg/mL
same,MIC Coagulase Negative Staphylococcus (GC 4547),Staphylococcus sp.; strain GC 4547,4 µg/mL
same,MIC Coagulase Negative Staphylococcus (GC 4548),Staphylococcus sp.; strain GC 4548,2 µg/mL
same,MIC Coagulase Negative Staphylococcus (GC 4549),Staphylococcus sp.; strain GC 4549,1 µg/mL
same,MIC Coagulase Negative Staphylococcus (GC 4551),Staphylococcus sp.; strain GC 4551,2 µg/mL
same,MIC Staphylococcus aureus-SMITH (GC 4543),Staphylococcus sp.; strain SMITH GC 4543,2 µg/mL
same,MIC Streptococcus agalactiae (GC 4564),Streptococcus sp.; Streptococcus agalactiae (GC 4564),<0.12 µg/mL
same,MIC Streptococcus pneumoniae (ATCC 6301),Streptococcus sp.; Streptococcus pneumoniae (ATCC 6301),<0.12 µg/mL
same,MIC Streptococcus pneumoniae (GC 1894),Streptococcus sp.; Streptococcus pneumoniae (GC 1894),<0.12 µg/mL
same,MIC Streptococcus pneumoniae (GC 4565),Streptococcus sp.; Streptococcus pneumoniae (GC 4565),<0.12 µg/mL
same,MIC Streptococcus pyogenes (GC 4563),Streptococcus sp.; Streptococcus pyogenes (GC 4563),0.25 µg/mL
same,MIC Streptococcus pneumoniae (ATCC 6301),Streptococcus sp.; strain ATCC 6301,<0.12 µg/mL
same,MIC Streptococcus pneumoniae (GC 1894),Streptococcus sp.; strain GC 1894,<0.12 µg/mL
same,MIC Streptococcus pyogenes (GC 4563),Streptococcus sp.; strain GC 4563,0.25 µg/mL
same,MIC Streptococcus agalactiae (GC 4564),Streptococcus sp.; strain GC 4564,<0.12 µg/mL
same,MIC Streptococcus pneumoniae (GC 4565),Streptococcus sp.; strain GC 4565,<0.12 µg/mL
